Measured values: US10463670B2, “Use of non-peptide NK1 antagonists in a predetermined dose for the treatment of cancer” (SERVICIO ANDALUZ DE SALUD, priority 2013, dated 2019)

Experiments:
[1] = system: human lung cancer, reference HCC-44; assay: Lung cancer HCC-44 tumours implanted s.c. in nude mice, Aprepitant alone; format: in vivo
Description: (§1) Immunocompromised female mice, 5-6 weeks of age were used, nu/nu Balb/c nude mice, provided by Harlan Iberica Barcelona (Spain). They were kept at 24° C. and in sterile conditions with food and water “ad libitum”. They were injected with 2×10^7 tumour cells, corresponding to cancer (human lung cancer, reference HCC-44 supplied by DSMZ) in 200 μl of PBS subcutaneous route. The tumour size was measured and the mice were evaluated for their state of health and weight daily. The mice were randomized in nine groups when the tumours reached a volume of 75 mm^3. One of the groups was treated with 200 μl of placebo (control group) and the eight remaining groups with doses of 10 (group 1), 20 (group 2), 30 (group 3), 40 (group 4), 50 (group 5), 60 (group 6), 70 (group 7) and 80 (group 8) mg per kilogram of weight and day of the NK1 receptor antagonist Aprepitant. 3 animals were treated per group, during 28 days. All the mice were sacrificed at the end of the experiment.

[2] = system: human neuroblastoma; reference KELLY; assay: Neuroblastoma KELLY tumours implanted s.c. in nude mice, Aprepitant alone; format: in vivo
Description: as §1
Immunocompromised female mice, 5-6 weeks of age were used, in the same conditions as explained in example 1. They were injected with 2×10^7 tumour cells, corresponding to an embryonic tumour (human neuroblastoma; reference KELLY; supplied by DSMZ) in 200 μl of PBS by subcutaneous route. The tumour size was measured and the mice were evaluated for their state of health and weight daily. The mice were randomized in nine groups when the tumours reached a volume of 75 mm^3. One of the groups was treated with 200 μl of placebo (control group) and the eight remaining groups with doses of 10 (group 1), 20 (group 2), 30 (group 3), 40 (group 4), 50 (group 5), 60 (group 6), 70 (group 7) and 80 (group 8) mg per kilogram of weight and day of the NK1 receptor antagonist Aprepitant. 3 animals were treated per group, during 28 days. All the mice were sacrificed at the end of the experiment.

[3] = system: Human adenocolon cancer SW-403; assay: MTS cell proliferation, nanomolar antagonist, SW-403; format: cell-based; conditions: Aprepitant 1, 5 and 7 nM, vs cells grown in the absence of antagonist, time dependant
Description: (§2) Cell cultures of various commercial tumour cell lines stated in table 13 were used. [table] […] The number of cells was quantified using a Coulter counter. […] The culture plates were grown in the presence of increasing concentrations of non-peptide NK1 receptor antagonists. To obtain the staining in the proliferation assays, 20 μl of MTS were added to each one of the wells of the cell culture plates 90 minutes before reading the samples in a multiscan spectrophotometer (TECAN Spectra classic, Barcelona, Spain) at 492 nm (assay wavelength) and 690 nm (reference wavelength). The different doses were tested in duplicate and each experiment was performed in triplicate. The antagonist Aprepitant was used at the following concentrations: 1 nanomolar -nM-, 5 nanomolar -nM- and 7 nanomolar -nM-. […] As proliferation control, the cells were grown in the absence of said antagonist. This is expressed in FIGS. 1 to 10.

[4] = system: Human B cell lymphoma BC-1; assay: MTS cell proliferation, nanomolar antagonist, BC-1; format: cell-based; conditions: Aprepitant 1, 5 and 7 nM, vs cells grown in the absence of antagonist, time dependant
Description: as §2

Human melanoma MEL HO = assay: MTS cell proliferation, nanomolar antagonist, MEL HO; format: cell-based; conditions: Aprepitant 1, 5 and 7 nM, vs cells grown in the absence of antagonist, time dependant
Description: as §2

[5] = system: Human neuroblastoma KELLY; assay: MTS cell proliferation, nanomolar antagonist, KELLY; format: cell-based; conditions: Aprepitant 1, 5 and 7 nM, vs cells grown in the absence of antagonist, time dependant
Description: as §2

[6] = Aprepitant 10 mg/kg/day, 7 days
[7] = Aprepitant 10 mg/kg/day, 14 days
[8] = Aprepitant 10 mg/kg/day, 21 days
[9] = Aprepitant 10 mg/kg/day, 28 days
[10] = Aprepitant 20 mg/kg/day, 7 days
[11] = Aprepitant 20 mg/kg/day, 14 days
[12] = Aprepitant 20 mg/kg/day, 21 days
[13] = Aprepitant 20 mg/kg/day, 28 days
[14] = Aprepitant 30 mg/kg/day, 7 days
[15] = Aprepitant 30 mg/kg/day, 14 days
[16] = Aprepitant 30 mg/kg/day, 21 days
[17] = Aprepitant 30 mg/kg/day, 28 days
[18] = Aprepitant 40 mg/kg/day, 7 days
[19] = Aprepitant 40 mg/kg/day, 14 days
[20] = Aprepitant 40 mg/kg/day, 21 days
[21] = Aprepitant 40 mg/kg/day, 28 days
[22] = Aprepitant 50 mg/kg/day, 7 days
[23] = Aprepitant 50 mg/kg/day, 14 days
[24] = Aprepitant 50 mg/kg/day, 21 days
[25] = Aprepitant 50 mg/kg/day, 28 days
[26] = Aprepitant 60 mg/kg/day, 7 days
[27] = Aprepitant 60 mg/kg/day, 14 days
[28] = Aprepitant 60 mg/kg/day, 21 days
[29] = Aprepitant 60 mg/kg/day, 28 days
[30] = Aprepitant 70 mg/kg/day, 7 days
[31] = Aprepitant 70 mg/kg/day, 14 days
[32] = Aprepitant 70 mg/kg/day, 21 days
[33] = Aprepitant 70 mg/kg/day, 28 days
[34] = Aprepitant 80 mg/kg/day, 7 days
[35] = Aprepitant 80 mg/kg/day, 14 days
[36] = Aprepitant 80 mg/kg/day, 21 days
[37] = Aprepitant 80 mg/kg/day, 28 days

C[C@@H](O[C@H]1OCCN(Cc2n[nH]c(=O)[nH]2)[C@H]1c1ccc(F)cc1)c1cc(C(F)(F)F)cc(C(F)(F)F)c1 [Aprepitant]
Tumour size (mean volume of the tumour) [1, 6]: 210 ± 2 cubic millimeters
Tumour size (mean volume of the tumour) [1, 7]: 190 ± 4 cubic millimeters
Tumour size (mean volume of the tumour) [1, 8]: 165 ± 6 cubic millimeters
Tumour size (mean volume of the tumour) [1, 9]: 135 ± 3 cubic millimeters
Tumour size (mean volume of the tumour) [1, 10]: 205 ± 8 cubic millimeters
Tumour size (mean volume of the tumour) [1, 11]: 170 ± 3 cubic millimeters
Tumour size (mean volume of the tumour) [1, 12]: 145 ± 4 cubic millimeters
Tumour size (mean volume of the tumour) [1, 13]: 110 ± 4 cubic millimeters
Tumour size (mean volume of the tumour) [1, 14]: 185 ± 4 cubic millimeters
Tumour size (mean volume of the tumour) [1, 15]: 150 ± 6 cubic millimeters
Tumour size (mean volume of the tumour) [1, 16]: 135 ± 5 cubic millimeters
Tumour size (mean volume of the tumour) [1, 17]: 105 ± 2 cubic millimeters
Tumour size (mean volume of the tumour) [1, 18]: 155 ± 5 cubic millimeters
Tumour size (mean volume of the tumour) [1, 19]: 130 ± 4 cubic millimeters
Tumour size (mean volume of the tumour) [1, 20]: 120 ± 4 cubic millimeters
Tumour size (mean volume of the tumour) [1, 21]: 95 ± 4 cubic millimeters
Tumour size (mean volume of the tumour) [1, 22]: 130 ± 4 cubic millimeters
Tumour size (mean volume of the tumour) [1, 23]: 115 ± 7 cubic millimeters
Tumour size (mean volume of the tumour) [1, 24]: 105 ± 6 cubic millimeters
Tumour size (mean volume of the tumour) [1, 25]: 85 ± 6 cubic millimeters
Tumour size (mean volume of the tumour) [1, 26]: 110 ± 3 cubic millimeters
Tumour size (mean volume of the tumour) [1, 27]: 95 ± 8 cubic millimeters
Tumour size (mean volume of the tumour) [1, 28]: 80 ± 7 cubic millimeters
Tumour size (mean volume of the tumour) [1, 29]: 65 ± 4 cubic millimeters
Tumour size (mean volume of the tumour) [1, 30]: 95 ± 4 cubic millimeters
Tumour size (mean volume of the tumour) [1, 31]: 80 ± 6 cubic millimeters
Tumour size (mean volume of the tumour) [1, 32]: 65 ± 8 cubic millimeters
Tumour size (mean volume of the tumour) [1, 33]: 40 ± 7 cubic millimeters
Tumour size (mean volume of the tumour) [1, 34]: 70 ± 4 cubic millimeters
Tumour size (mean volume of the tumour) [1, 35]: 55 ± 7 cubic millimeters
Tumour size (mean volume of the tumour) [1, 36]: 40 ± 6 cubic millimeters
Tumour size (mean volume of the tumour) [1, 37]: 25 ± 5 cubic millimeters
Tumour size (mean volume of the tumour) [2, 6]: 180 ± 4 cubic millimeters
Tumour size (mean volume of the tumour) [2, 7]: 165 ± 6 cubic millimeters
Tumour size (mean volume of the tumour) [2, 8]: 140 ± 5 cubic millimeters
Tumour size (mean volume of the tumour) [2, 9]: 120 ± 2 cubic millimeters
Tumour size (mean volume of the tumour) [2, 10]: 175 ± 7 cubic millimeters
Tumour size (mean volume of the tumour) [2, 11]: 155 ± 7 cubic millimeters
Tumour size (mean volume of the tumour) [2, 12]: 130 ± 4 cubic millimeters
Tumour size (mean volume of the tumour) [2, 13]: 105 ± 4 cubic millimeters
Tumour size (mean volume of the tumour) [2, 14]: 160 ± 3 cubic millimeters
Tumour size (mean volume of the tumour) [2, 15]: 145 ± 3 cubic millimeters
Tumour size (mean volume of the tumour) [2, 16]: 115 ± 3 cubic millimeters
Tumour size (mean volume of the tumour) [2, 17]: 90 ± 6 cubic millimeters
Tumour size (mean volume of the tumour) [2, 18]: 155 ± 6 cubic millimeters
Tumour size (mean volume of the tumour) [2, 19]: 130 ± 6 cubic millimeters
Tumour size (mean volume of the tumour) [2, 20]: 105 ± 7 cubic millimeters
Tumour size (mean volume of the tumour) [2, 21]: 75 ± 8 cubic millimeters
Tumour size (mean volume of the tumour) [2, 22]: 140 ± 4 cubic millimeters
Tumour size (mean volume of the tumour) [2, 23]: 110 ± 5 cubic millimeters
Tumour size (mean volume of the tumour) [2, 24]: 95 ± 7 cubic millimeters
Tumour size (mean volume of the tumour) [2, 25]: 60 ± 5 cubic millimeters
Tumour size (mean volume of the tumour) [2, 26]: 130 ± 5 cubic millimeters
Tumour size (mean volume of the tumour) [2, 27]: 115 ± 7 cubic millimeters
Tumour size (mean volume of the tumour) [2, 28]: 85 ± 3 cubic millimeters
Tumour size (mean volume of the tumour) [2, 29]: 55 ± 9 cubic millimeters
Tumour size (mean volume of the tumour) [2, 30]: 120 ± 6 cubic millimeters
Tumour size (mean volume of the tumour) [2, 31]: 95 ± 8 cubic millimeters
Tumour size (mean volume of the tumour) [2, 32]: 65 ± 6 cubic millimeters
Tumour size (mean volume of the tumour) [2, 33]: 40 ± 5 cubic millimeters
Tumour size (mean volume of the tumour) [2, 34]: 105 ± 7 cubic millimeters
Tumour size (mean volume of the tumour) [2, 35]: 85 ± 6 cubic millimeters
Tumour size (mean volume of the tumour) [2, 36]: 45 ± 5 cubic millimeters
Tumour size (mean volume of the tumour) [2, 37]: 25 ± 6 cubic millimeters
Proliferation of tumour cells (MTS) [3]: increase was observed of proliferation
Proliferation of tumour cells (MTS) [4]: increase was observed of proliferation
Proliferation of tumour cells (MTS) (Human melanoma MEL HO): increase was observed of proliferation
Proliferation of tumour cells (MTS) [5]: increase was observed of proliferation
